Reference: US9249085B2, “Aniline derivatives, their preparation and their therapeutic application” (FOVEA PHARMACEUTICALS, priority 2011, dated 2016)
pEC50, pIC50: −log10 of the molar value.

Tests used:
[1] = biological target: recombinant human prostanoid EP2 receptor (Homo sapiens (Human), UniProt P43116); test: Human prostanoid EP2 receptor cellular functional assay (cAMP, HTRF); format: cell-based; details: for pEC50: CHO cells expressing recombinant human EP2, cAMP by HTRF, 30 min, 37° C., read-out: In vitro functional assay EP2 (h) EC50; for In vitro functional assay EP2 (h) % response: percent of control specific agonist response (10 μM PGE2)
recombinant human prostanoid EP2 receptor, sequence (P43116 whole entry): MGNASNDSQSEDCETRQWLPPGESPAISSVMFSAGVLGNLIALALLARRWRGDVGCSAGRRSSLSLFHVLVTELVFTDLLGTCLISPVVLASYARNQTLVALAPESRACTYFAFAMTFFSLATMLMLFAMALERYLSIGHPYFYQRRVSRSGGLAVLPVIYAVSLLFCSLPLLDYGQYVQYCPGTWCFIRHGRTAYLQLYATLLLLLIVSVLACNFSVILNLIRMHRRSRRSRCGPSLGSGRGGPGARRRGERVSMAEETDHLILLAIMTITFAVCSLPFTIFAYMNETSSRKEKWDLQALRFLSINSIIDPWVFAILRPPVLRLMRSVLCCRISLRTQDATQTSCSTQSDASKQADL
Experimental: Test 1.2: Human Prostanoid EP2 Receptor Cellular Functional Assay
Human CHO cells expressing the recombinant human prostanoid EP2 receptor were suspended in assay medium (HBSS buffer (Invitrogen) containing 20 mM HEPES (pH7.4) and 500 μM isobutyl-methylxanthine IBMX) and plated out to yield approximately 1×10^4 cells/well in a 96-well. Following this, cells were incubated with agonists for 30 min in the presence of the test compounds. For stimulated control measurements, separate assay wells contain 10 μM PGE2 (control specific agonist). All incubations were carried out at 37° C. in a 5% CO2 atmosphere. Following incubation, the amount of cAMP in each well was determined by HTRF method. The cells are lysed and the fluorescence acceptor (D2-labeled cAMP) and fluorescence donor (anti-cAMP antibody labeled with europium cryptate) are added. After 60 min at room temperature, the fluorescence transfer is measured at λ ex=337 nm and λ em=620 and 665 nm using a microplate reader (Rubystar, BMG).
The cAMP concentration is determined by dividing the signal measured at 665 nm by that measured at 620 nm (ratio).
The standard reference agonist PGE2 was tested at several concentrations to generate a concentration-response curve to determined EC50.
(§1) Analysis and Expression of Results
The results are expressed as a percent of control specific agonist response ((measured specific response/control specific agonist response)×100) obtained in the presence of the test compounds. The EC50 values (concentration producing a half-maximal specific response) were determined by non-linear regression analysis of the concentration-response curves generated with mean replicate values using Hill equation curve fitting (Y=D+[(A−D)/(1+(C/C50)nH)], where Y=specific response, D=minimum specific response, A=maximum specific response, C=compound concentration, and C50=EC50 and nH=slope factor). This analysis was performed using a software developed at Cerep (Hill software) and validated by comparison with data generated by the commercial software SigmaPlot® 4.0 for Windows® (© 1997 by SPSS Inc.).

[2] = biological target: recombinant human prostanoid EP4 receptor (Homo sapiens (Human), UniProt P35408); test: Human prostanoid EP4 receptor binding assay ([3H]PGE2 displacement); details: HEK-293(T) membranes, 0.5 nM [3H]PGE2, 120 min at 22° C.; NC: not calculable; read-out: In vitro potency EP4 (h) IC50
recombinant human prostanoid EP4 receptor, sequence (P35408 whole entry): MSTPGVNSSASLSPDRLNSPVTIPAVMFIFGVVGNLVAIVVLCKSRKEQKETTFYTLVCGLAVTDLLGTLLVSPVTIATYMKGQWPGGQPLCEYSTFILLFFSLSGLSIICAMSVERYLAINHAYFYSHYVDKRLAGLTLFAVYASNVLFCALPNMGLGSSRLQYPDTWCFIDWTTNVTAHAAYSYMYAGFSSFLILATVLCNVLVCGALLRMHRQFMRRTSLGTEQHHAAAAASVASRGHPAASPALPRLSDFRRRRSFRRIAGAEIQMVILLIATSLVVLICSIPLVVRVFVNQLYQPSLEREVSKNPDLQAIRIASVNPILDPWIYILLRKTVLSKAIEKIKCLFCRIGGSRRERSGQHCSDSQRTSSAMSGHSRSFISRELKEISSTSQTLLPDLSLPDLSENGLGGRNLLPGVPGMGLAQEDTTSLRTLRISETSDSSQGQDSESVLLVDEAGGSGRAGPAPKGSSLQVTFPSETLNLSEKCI
Experimental: Test 1.1: Human Prostanoid EP4 Receptor Binding Assay
Cell membrane homogenate from Human embryonic kidney HEK-293(T) cells expressing recombinant human prostanoid EP4 receptor was used to perform Prostanoid receptor radioligand binding assays.
The competition reaction was initiated by incubation of membrane protein homogenate (20 μg protein) for 120 min at 22° C. with 0.5 nM [^3H]PGE2 ligand in the absence or presence of the test compound in a buffer containing 10 mM MES/KOH (pH 6.0), 10 mM MgCl2 and 1 mM EDTA.
Non-specific binding was determined in the presence of 10 μM PGE2 (the corresponding non-radioactive prostanoid). Affinity of the compound binding to hEP4 receptor was measured by displacement of the radiolabeled ligand in the presence of varying doses of tested compound.
Incubations were terminated by rapid filtration under vacuum through glass fiber filters (GF/B, Packard) presoaked with 0.3% PEI and washed several times with ice-cold 50 mM Tris-HCl using a 96-sample cell harvester (Unifilter, Packard).
The filters were dried and the residual radioactivity bound to the individual filters determined with addition of scintillation cocktail (Microscint 0, Packard) by a scintillation counter (Topcount, Packard).
The results were expressed as a percent inhibition of the control radioligand specific binding.
The standard reference compound PGE2, was tested in at several concentrations to obtain a competition curve to determined IC50.
as §1
The specific ligand binding to the receptors is defined as the difference between the total binding and the nonspecific binding determined in the presence of an excess of unlabelled ligand. The results are expressed as a percent of control specific binding ((measured specific binding/control specific binding)×100) obtained in the presence of the test compounds. The IC50 values (concentration causing a half-maximal inhibition of control specific binding) and Hill coefficients (nH) were determined by non-linear regression analysis of the competition curves generated with mean replicate values using Hill equation curve fitting (Y=D+[(A−D)/(1+(C/C50)nH)], where Y=specific binding, D=minimum specific binding, A=maximum specific binding, C=compound concentration, C50=IC50, and nH=slope factor). This analysis was performed using a software developed at Cerep (Hill software) and validated by comparison with data generated by the commercial software SigmaPlot® 4.0 for Windows® (© 1997 by SPSS Inc.). The inhibition constants (Ki) were calculated using the Cheng Prusoff equation (Ki=IC50/(1+(L/KD)), where L=concentration of radioligand in the assay, and KD=affinity of the radioligand for the receptor). A scatchard plot is used to determine the Kd.

Cc1c(F)cc(-c2cccc(F)c2)cc1CNc1c(F)ccc(OCC(=O)O)c1F [I(aa), 2-[2,4-difluoro-3-[[3-fluoro-5-(3-fluorophenyl)-2-methylphenyl]methylamino]phenoxy]acetic acid]
pEC50 [1]: 8.52
In vitro functional assay EP2 (h) % response [1]: 97%
pIC50 [2]: < 6.52

Cc1cc(-c2cccc(F)c2)cc(CNc2c(F)ccc(OCC(=O)O)c2C)c1F [I(ad), 2-[4-fluoro-3-[[2-fluoro-5-(3-fluorophenyl)-3-methyl-phenyl]methylamino]-2-methyl-phenoxy]acetic acid]
pEC50 [1]: 8.70
In vitro functional assay EP2 (h) % response [1]: 101%
pIC50 [2]: < 6.52

Cc1cc(-c2cccc(F)c2)cc(CNc2c(C)ccc(OCC(=O)O)c2C)c1F [I(ag), 2-[3-[[2-fluoro-5-(3-fluorophenyl)-3-methyl-phenyl]methylamino]-2,4-dimethyl-phenoxy]acetic acid]
pEC50 [1]: > 9.00
In vitro functional assay EP2 (h) % response [1]: 85%
pIC50 [2]: < 6.52

Cc1cc(-c2cccc(F)c2)cc(CNc2c(C)ccc(OCC(=O)O)c2C)c1C [I(ak), 2-[3-[[5-(3-fluorophenyl)-2,3-dimethyl-phenyl]methylamino]-2,4-dimethyl-phenoxy]acetic acid]
pEC50 [1]: 8.70
In vitro functional assay EP2 (h) % response [1]: 113%
pIC50 [2]: < 6.52

COc1c(C)cc(-c2cccc(F)c2)cc1CNc1c(C)ccc(OCC(=O)O)c1C [I(al), 2-[3-[[5-(3-fluorophenyl)-2-methoxy-3-methyl-phenyl]methylamino]-2,4-dimethyl-phenoxy]acetic acid]
pEC50 [1]: 9.05
In vitro functional assay EP2 (h) % response [1]: 70%
pIC50 [2]: < 6.52

Cc1cc(-c2cccc(F)c2)cc(CNc2c(F)ccc(OCC(=O)O)c2C)c1C [I(at), 2-[4-fluoro-3-[[5-(3-fluorophenyl)-2,3-dimethyl-phenyl]methylamino]-2-methyl-phenoxy]acetic acid]
pEC50 [1]: 8.22
In vitro functional assay EP2 (h) % response [1]: 91%
pIC50 [2]: < 6.52

Cc1ccc(OCC(=O)O)c(C)c1NCc1cc(-c2cccc(F)c2)cc(F)c1C [I(aw), 2-[3-[[3-fluoro-5-(3-fluorophenyl)-2-methyl-phenyl]methylamino]-2,4-dimethyl-phenoxy]acetic acid]
pEC50 [1]: 8.52
In vitro functional assay EP2 (h) % response [1]: 80%
pIC50 [2]: < 6.52

O=C(O)COc1ccc(Cl)c(NCc2cc(-c3cccc(F)c3)ccc2F)c1F [I(k), 2-[4-Chloro-2-fluoro-3-[[2-fluoro-5-(3-fluorophenyl)phenyl]methylamino]phenoxy]acetic acid]
pEC50 [1]: 7.14
In vitro functional assay EP2 (h) % response [1]: 77%
pIC50 [2]: < 6.52

O=C(O)COc1ccc(F)c(NCc2cc(F)cc(-c3cccc(F)c3)c2)c1F [I(n), 2-[2,4-Difluoro-3-[[3-fluoro-5-(3-fluorophenyl)phenyl]methylamino]phenoxy]acetic acid]
pEC50 [1]: 7.28
In vitro functional assay EP2 (h) % response [1]: 86%

O=C(O)COc1ccc(F)c(NCc2cc(-c3cccc(F)c3)ccc2F)c1Cl [I(o), 2-[2-Chloro-4-fluoro-3-[[2-fluoro-5-(3-fluorophenyl)phenyl]methylamino]phenoxy]acetic acid]
pEC50 [1]: 7.47
In vitro functional assay EP2 (h) % response [1]: 74%

O=C(O)COc1ccc(F)c(NCc2cc(O)cc(-c3cccc(F)c3)c2)c1F [I(p), 2-[2,4-Difluoro-3-[[3-(3-fluorophenyl)-5-hydroxy-phenyl]methylamino]phenoxy]acetic acid]
pEC50 [1]: 7.77
In vitro functional assay EP2 (h) % response [1]: 70%

COc1cc(CNc2c(F)ccc(OCC(=O)O)c2F)cc(-c2cccc(F)c2)c1 [I(q), 2-[2,4-Difluoro-3-[[3-(3-fluorophenyl)-5-methoxy-phenyl]methylamino]phenoxy]acetic acid]
pEC50 [1]: 7.74
In vitro functional assay EP2 (h) % response [1]: 70%

O=C(O)COc1ccc(Cl)c(NCc2cc(-c3cccc(F)c3)ccc2F)c1Cl [I(r), 2-[2,4-Dichloro-3-[[2-fluoro-5-(3-fluorophenyl)phenyl]methylamino]phenoxy]acetic acid]
pEC50 [1]: 7.35
In vitro functional assay EP2 (h) % response [1]: 78%
pIC50 [2]: < 6.52

O=C(O)COc1ccc(F)c(NCc2c(F)ccc(-c3cccc(F)c3)c2F)c1F [I(s), 2-[3-[[2,6-Difluoro-3-(3-fluorophenyl)phenyl]methylamino]-2,4-difluoro-phenoxy]acetic acid]
pEC50 [1]: 7.77
In vitro functional assay EP2 (h) % response [1]: 72%

COc1c(C)cc(-c2cccc(F)c2)cc1CNc1c(F)ccc(OCC(=O)O)c1F [I(t), 2-[2,4-Difluoro-3-[[5-(3-fluorophenyl)-2-methoxy-3-methyl-phenyl]methylamino]phenoxy]acetic acid]
pEC50 [1]: 7.77
In vitro functional assay EP2 (h) % response [1]: 73%

Cc1cc(-c2cccc(F)c2)cc(CNc2c(F)ccc(OCC(=O)O)c2F)c1O [I(u), 2-[2,4-Difluoro-3-[[5-(3-fluorophenyl)-2-hydroxy-3-methyl-phenyl]methylamino]phenoxy]acetic acid]
pEC50 [1]: 8.05
In vitro functional assay EP2 (h) % response [1]: 78%

Cc1cc(-c2cccc(F)c2)cc(CNc2c(F)ccc(OCC(=O)O)c2F)c1C [I(v), 2-[2,4-Difluoro-3-[[5-(3-fluorophenyl)-2,3-dimethyl-phenyl]methylamino]phenoxy]acetic acid]
pEC50 [1]: 8.70
In vitro functional assay EP2 (h) % response [1]: 85%

O=C(O)COc1ccc(F)c(NCc2cc(-c3ccc(F)c(F)c3)ccc2F)c1F [I(w), 2-[3-[[5-(3,4-difluorophenyl)-2-fluoro-phenyl]methylamino]-2,4-difluoro-phenoxy]acetic acid]
pEC50 [1]: 7.85
In vitro functional assay EP2 (h) % response [1]: 40%

N#Cc1cc(CNc2c(F)ccc(OCC(=O)O)c2F)cc(-c2cccc(F)c2)c1 [I(x), 2-[3-[[3-cyano-5-(3-fluorophenyl)phenyl]methylamino]-2,4-difluoro-phenoxy]acetic acid]
pEC50 [1]: 7.57
In vitro functional assay EP2 (h) % response [1]: 45%

Cc1c(-c2cccc(F)c2)ccc(F)c1CNc1c(F)ccc(OCC(=O)O)c1F [I(y), 2-[2,4-difluoro-3-[[6-fluoro-3-(3-fluorophenyl)-2-methyl-phenyl]methylamino]phenoxy]acetic acid]
pEC50 [1]: 6.89
In vitro functional assay EP2 (h) % response [1]: 62%

NC(=O)c1cc(CNc2c(F)ccc(OCC(=O)O)c2F)cc(-c2cccc(F)c2)c1 [I(z), 2-[3-[[3-carbamoyl-5-(3-fluorophenyl)phenyl]methylamino]-2,4-difluoro-phenoxy]acetic acid]
pEC50 [1]: 8.40
In vitro functional assay EP2 (h) % response [1]: 53%
